{
  "source": "patent US20070190172A1",
  "about": "“Enhanced activity biocidal hydrogen peroxide composition” (ASEPTIX TECHNOLOGIES B.V., priority 2006, published 2007)",
  "key": {"Staphylococcus aureus [1]": {"test_system": "Staphylococcus aureus", "assay": "EN 1276 bactericidal suspension test", "type": "cell-based", "settings": "1.2% H2O2 + 0.6% surfactant", "description": "(§1) Biocidal activity of a composition for use according to the invention is preferably determined by a controlled bactericidal suspension test conform European Norm for chemical disinfectants and antiseptics EN 1276 (EN 1276: Quantitative suspension test for the evaluation of bactericidal activity of chemical disinfectants and antiseptics used in food, industrial, domestic, and institutional areas: test method and requirements). An effective biocidal composition is a composition that provides at least a log 3 reduction after a 1 minute contact time with a Staphylococcus aureus test suspension of 10^8 cfu per ml, preferably at least a log 4 reduction, more preferably at least a log 5 reduction, most preferably at least a log 6 reduction.\n(§2) Bactericidal activity of the exemplified compositions was tested using a controlled bactericidal suspension test conform European Norm for chemical disinfectants and antiseptics EN 1276 (EN 1276: Quantitative suspension test for the evaluation of bactericidal activity of chemical disinfectants and antiseptics used in food, industrial, domestic, and institutional areas: test method and requirements). One ml of a test suspension containing about 10^8 cfu of the test microorganism per ml is added to 8 ml of the composition to be tested, and 1 ml milli-Q water is added. In some experiments, a protein load was added to this suspension according to the EN 1276 procedures to simulate unclean practical conditions. To provide for a clean condition 0.3% Bovine Albumin was added and for a dirty condition 3% Bovine Albumin.\n(§3) After 1, 2 and 5 minutes contact time, the amount of viable bacteria was determined."}, "Enterococcus hirae": {"test_system": "Enterococcus hirae", "assay": "EN 1276 bactericidal suspension test", "type": "cell-based", "settings": "1.2% H2O2 + 0.6% surfactant", "description": "as §1, §2, §3\n(§4) To simulate unclean practical conditions, a protein load was added according to the EN 1276 procedures to bacterial test suspensions. To provide for a clean condition 0.3% Bovine Albumin was added and for a dirty condition 3% Bovine Albumin. The performance of Monafax 1214 was compared with that of the N,N-Dimethyldecylamine-N-oxide (Barlox 10s of Lonza Ltd.). A H2O2 concentration of 1.2% was used and a 0.6% of the respective surfactants. The solution containing Monafax has a pH of around 2.3 and the solution containing Barlox 10s has a pH of around 5."}, "Lysteria monocytogenes": {"test_system": "Lysteria monocytogenes", "assay": "EN 1276 bactericidal suspension test", "type": "cell-based", "settings": "1.2% H2O2 + 0.6% surfactant", "description": "as §1, §2, §3, §4"}, "Candida albicans": {"test_system": "Candida albicans", "assay": "EN 1276 bactericidal suspension test", "type": "cell-based", "settings": "1.2% H2O2 + 0.6% surfactant", "description": "as §1, §2, §3, §4"}, "Bacillus cereus": {"test_system": "Bacillus cereus", "assay": "EN 1276 bactericidal suspension test", "type": "cell-based", "settings": "1.2% H2O2 + 0.6% surfactant", "description": "as §1, §2, §3, §4"}, "Staphylococcus aureus [2]": {"test_system": "Staphylococcus aureus", "settings": "background statement; cited from earlier work"}, "Adenovirus": {"test_system": "Adenovirus", "assay": "EN 14476 virucidal quantitative suspension test", "type": "cell-based", "protocol": "(§5) In a similar way, fungicidal and virucidal activity was tested using tests dedicated for use with fungi of viruses. For fungi or yeasts, the tests according to European norms EN 1275, EN 1650 or EN 13624 were used. For viruses, the test according to European norm EN 14476 was used.\n(§6) A composition comprising 2% H2O2 and 1% Monafax 1214 was prepared and tested against Vacciniavirus, Feline Calici Virus and Adenovirus according to the […] norm:\n(§7) EN 14476—Chemical disinfectants and antiseptics—Virucidal quantitative suspension test for chemical disinfectants and antiseptics used in human medicine—Test methods and requirements (phase 2/step 1)."}, "Feline Calici Virus": {"test_system": "Feline Calici Virus", "assay": "EN 14476 virucidal quantitative suspension test", "type": "cell-based", "protocol": "as §5, §6, §7"}, "[3]": {"settings": "clean condition 0.3% Bovine Albumin, 2 min"}, "[4]": {"settings": "clean condition 0.3% Bovine Albumin, 5 min"}, "[5]": {"settings": "dirty condition 3% Bovine Albumin, 2 min"}, "[6]": {"settings": "dirty condition 3% Bovine Albumin, 5 min"}},
  "data": [
    {"smiles": "CCCCCCCCCC[N+](C)(C)[O-]", "note": "[Barlox 10s (Lonza), N,N-Dimethyldecylamine-N-oxide]", "values": [
      {"measurement": "number of colonies, clean, 2 min", "setting": "Staphylococcus aureus [1]; [3]", "result": ">300"},
      {"measurement": "number of colonies, clean, 5 min", "setting": "Staphylococcus aureus [1]; [4]", "result": ">300"},
      {"measurement": "number of colonies, dirty, 2 min", "setting": "Staphylococcus aureus [1]; [5]", "result": ">300"},
      {"measurement": "number of colonies, dirty, 5 min", "setting": "Staphylococcus aureus [1]; [6]", "result": ">300"},
      {"measurement": "number of colonies, clean, 2 min", "setting": "Enterococcus hirae; [3]", "result": 8},
      {"measurement": "number of colonies, clean, 5 min", "setting": "Enterococcus hirae; [4]", "result": 0},
      {"measurement": "number of colonies, dirty, 2 min", "setting": "Enterococcus hirae; [5]", "result": 6},
      {"measurement": "number of colonies, dirty, 5 min", "setting": "Enterococcus hirae; [6]", "result": 1},
      {"measurement": "number of colonies, clean, 2 min", "setting": "Lysteria monocytogenes; [3]", "result": ">300"},
      {"measurement": "number of colonies, clean, 5 min", "setting": "Lysteria monocytogenes; [4]", "result": ">300"},
      {"measurement": "number of colonies, dirty, 2 min", "setting": "Lysteria monocytogenes; [5]", "result": ">300"},
      {"measurement": "number of colonies, dirty, 5 min", "setting": "Lysteria monocytogenes; [6]", "result": ">300"},
      {"measurement": "number of colonies, clean, 2 min", "setting": "Candida albicans; [3]", "result": 300},
      {"measurement": "number of colonies, clean, 5 min", "setting": "Candida albicans; [4]", "result": 250},
      {"measurement": "number of colonies, dirty, 2 min", "setting": "Candida albicans; [5]", "result": ">300"},
      {"measurement": "number of colonies, dirty, 5 min", "setting": "Candida albicans; [6]", "result": ">300"},
      {"measurement": "number of colonies, clean, 2 min", "setting": "Bacillus cereus; [3]", "result": ">300"},
      {"measurement": "number of colonies, clean, 5 min", "setting": "Bacillus cereus; [4]", "result": ">300"},
      {"measurement": "number of colonies, dirty, 2 min", "setting": "Bacillus cereus; [5]", "result": ">300"},
      {"measurement": "number of colonies, dirty, 5 min", "setting": "Bacillus cereus; [6]", "result": ">300"}
    ]},
    {"smiles": "OO", "note": "[hydrogen peroxide]", "values": [
      {"measurement": "time to achieve a greater than log 6 reduction in Staphylococcus aureus", "setting": "Staphylococcus aureus [2]", "result": 20, "unit": "seconds"}
    ]},
    {"smiles": "OO", "note": "[3% H2O2, hydrogen peroxide]", "values": [
      {"measurement": "log reduction, 5 minutes", "setting": "Adenovirus", "result": "log 0.5"},
      {"measurement": "log reduction, 10 minutes", "setting": "Adenovirus", "result": "log 0.6"}
    ]},
    {"smiles": "OO", "note": "[3% w/w hydrogen peroxide, hydrogen peroxide]", "values": [
      {"measurement": "time to achieve a greater than 6 log reduction in Staphylococcus aureus", "setting": "Staphylococcus aureus [2]", "result": 20, "unit": "minutes"}
    ]},
    {"smiles": "OO", "note": "[2% H2O2, hydrogen peroxide]", "values": [
      {"measurement": "log reduction, 3 minutes", "setting": "Feline Calici Virus", "result": "log 0.2"},
      {"measurement": "log reduction, 5 minutes", "setting": "Feline Calici Virus", "result": "log 0.9"},
      {"measurement": "log reduction, 5 minutes", "setting": "Adenovirus", "result": "log 0.6"},
      {"measurement": "log reduction, 10 minutes", "setting": "Adenovirus", "result": "log 0.6"}
    ]}
  ]
}
